Data published in patent publication US10064865B2, “Composition comprising phosphodiesterase type 5 inhibitor for inhibiting apoptosis of nerve cells” (ARIBIO INC., priority 2012, dated 2018).
Marks after values point to notes of the source that are not given here.

What was measured:
[1] = test system: neuron apoptosis-operated rats; test: Example 2 water tank task (water maze); format: in vivo, Sprague-Dawley (SD) rats
Experimental: Cognitive testing was conducted using the water tank task (J Neurosci Methods. 11:47-60(1984)). On the days 14 and 28 after neuron apoptosis, the rats were given a series of 3 trials, 10 min apart in a large dark-colored tank (150 cm in diameters×50 cm in height) filled with clear water at a temperature of 22.0±1.0° C. A 15×30 cm submerged platform (2 mm below water surface) was placed in the northwest quadrant of the pool. The release point was always the southern end of the pool. The rats were lowered into the pool facing the wall and were released. The swim paths of the rats for each trials were recorded with a computer interfaced camera tracking system (Smart junior, PanLab, Spain), and the distances (m) and times (sec) taken to reach the escape platform were measured.
All data were expressed as mean±standard deviation (S.D.) of ten rats. Multiple comparison tests for different dose groups were conducted. Variance homogeneity was examined using the Levene test (Levene A, Clin Otalary, 1981; 6:145-51). […] Statistical analyses were conducted using SPSS for Windows (Release 14K, SPSS Inc., USA; Ludbrook, Clin Exp Pharmacol Physiol, 1997; 24:294-6). In addition, the percent changes as compared with neuron apoptosis control and mirodenafil treated rats were calculated to help the understanding of the efficacy of test substances as follow Equation 6 and 7. Percentage Changes as Compared with Sham Control (%)=[((Data of neuron apoptosis control−Data of sham control rat)/Data of sham control rats)×100] [EQUATION 6] Percentage Changes as Compared with neuron apoptosis Control (%)=[((Data of test material treated rats−Data of neuron apoptosis control rats)/Data of neuron apoptosis control rats)×100] [EQUATION 7]

[2] = test system: neuron apoptosis-operated rats; test: Example 1 forelimb placing test; format: in vivo, Sprague-Dawley (SD) rats
Experimental: Sensorimotor function was evaluated by use of limb placing de Ryck M et al., Stroke. 20:1383-90(1989)) and body swing (Borlongan and Sanberg, J Neurosci. 15:5372-8(1995)) tests. These tests were performed one day before neuron apoptosis to obtain a baseline and then at 1, 3, 7, 14, 21 and 28 days after neuron apoptosis. Behavioral tests were done before drug administration on days when both were scheduled. The investigator performing the surgery and behavioral assessments was blinded to treatment assignment.
Limb placing test: Forelimb and hindlimb placement were assessed independently. For the forelimb placing test, the rats were held by their torso with their forepaws hanging free and moved slowly toward the edge of a tabletop, stopping short of touching the vibrissae (for vision-induced placing), touching the vibrissae (for vibrissae-induced placing), making light contact with the front of the forepaw to the edge of the tabletop (for tactile-induced placing), and pressing the forepaws to the edge of the table with increased pressure (for proprioceptive-induced placing). Hindlimb placing was conducted in the same manner as above but with tactile and proprioceptive stimulation applied to the front/top of each hindlimb. Each limb for placing in response to visual, vibrissae, tactile, and proprioceptive stimulation are scored in the following manner (A total of 12 points in forelimb placing test and 6 points in hindlimb placing test means maximal neurological deficit, and 0 points means normal performance):
Normal performance=0 points;
Performance with unilateral limb=1 point;
Performance with a delay (2 seconds) and/or incomplete=2 point;
All data were expressed as mean±standard deviation (S.D.) of ten rats. Multiple comparison tests for different dose groups were conducted. Variance homogeneity was examined using the Levene test (Levene A, Clin Otalary, 1981; 6:145-51). […] Statistical analyses were conducted using SPSS (Release 14K, SPSS Inc., USA; Ludbrook, Clin Exp Pharmacol Physiol, 1997; 24:294-6). In addition, the percent changes between neuron apoptosis control and mirodenafil treated rats were calculated to help the understanding of the efficacy of test material as follow equation 3. Percentage changes as compared with neuron apoptosis control (%)=[((Data of mirodenafil treated groups−Data of neuron apoptosis control)/Data of neuron apoptosis control)×100] [EQUATION 3]

[3] = 1 mg/kg from 24 hrs after surgery
[4] = 1 mg/kg from 72 hrs after surgery
[5] = 1 mg/kg from 168 hrs after surgery

CCCOc1ccc(S(=O)(=O)N2CCN(CCO)CC2)cc1-c1nc2c(CCC)cn(CC)c2c(=O)[nH]1 [Mirodenafil, mirodenafil]
mean distances to reach the escape platform at 28 days, change as compared with neuron apoptosis control [1, 3]: −26.45% | mean time to reach the escape platform at 28 days, change as compared with neuron apoptosis control [1, 3]: −24.49% | mean distances to reach the escape platform at 28 days, change as compared with neuron apoptosis control [1, 4]: −16.05% | mean time to reach the escape platform at 28 days, change as compared with neuron apoptosis control [1, 4]: −17.33% | mean distances to reach the escape platform at 28 days, change as compared with neuron apoptosis control [1, 5]: −6.42% | mean time to reach the escape platform at 28 days, change as compared with neuron apoptosis control [1, 5]: −5.36% | Forelimb placing test score ([2]; 0.5 mg/kg group, day 1 after operation (before drug administration)): 12.00 ± 0.00^d | Forelimb placing test score ([2]; 0.5 mg/kg group, day −1 (baseline)): 0.70 ± 0.67 | Forelimb placing test score ([2]; 0.5 mg/kg s.c. once a day, day 3 after operation): 8.00 ± 1.15^a | Forelimb placing test score ([2]; 0.5 mg/kg s.c. once a day, day 7 after operation): 7.80 ± 1.55^a | Forelimb placing test score ([2]; 0.5 mg/kg s.c. once a day, day 14 after operation): 6.80 ± 1.14^ac | Forelimb placing test score ([2]; 0.5 mg/kg s.c. once a day, day 21 after operation): 6.40 ± 1.17^a | Forelimb placing test score ([2]; 0.5 mg/kg s.c. once a day, day 28 after operation): 5.40 ± 1.07^a | forelimb placing test scores, change as compared with neuron apoptosis control ([2]; 0.5 mg/kg, 3 days after surgery): −3.61% | forelimb placing test scores, change as compared with neuron apoptosis control ([2]; 0.5 mg/kg, 7 days after surgery): −10.34% | forelimb placing test scores, change as compared with neuron apoptosis control ([2]; 0.5 mg/kg, 14 days after surgery): −12.82% | forelimb placing test scores, change as compared with neuron apoptosis control ([2]; 0.5 mg/kg, 21 days after surgery): −11.11% | forelimb placing test scores, change as compared with neuron apoptosis control ([2]; 0.5 mg/kg, 28 days after surgery): −12.90% | Forelimb placing test score ([2]; 1 mg/kg group, day 1 after operation (before drug administration)): 12.00 ± 0.00^d | Forelimb placing test score ([2]; 1 mg/kg group, day −1 (baseline)): 0.70 ± 0.48 | Forelimb placing test score ([2]; 1 mg/kg s.c. once a day, day 3 after operation): 6.80 ± 1.23^ab | Forelimb placing test score ([2]; 1 mg/kg s.c. once a day, day 7 after operation): 6.10 ± 1.20^ab | Forelimb placing test score ([2]; 1 mg/kg s.c. once a day, day 14 after operation): 5.30 ± 1.06^ab | Forelimb placing test score ([2]; 1 mg/kg s.c. once a day, day 21 after operation): 4.20 ± 1.23^ab | Forelimb placing test score ([2]; 1 mg/kg s.c. once a day, day 28 after operation): 2.70 ± 1.06^ab | forelimb placing test scores, change as compared with neuron apoptosis control ([2]; 1 mg/kg, 3 days after surgery): −18.07% | forelimb placing test scores, change as compared with neuron apoptosis control ([2]; 1 mg/kg, 7 days after surgery): −29.89% | forelimb placing test scores, change as compared with neuron apoptosis control ([2]; 1 mg/kg, 14 days after surgery): −32.05% | forelimb placing test scores, change as compared with neuron apoptosis control ([2]; 1 mg/kg, 21 days after surgery): −41.67% | forelimb placing test scores, change as compared with neuron apoptosis control ([2]; 1 mg/kg, 28 days after surgery): −56.45% | Forelimb placing test score ([2]; 2 mg/kg group, day 1 after operation (before drug administration)): 12.00 ± 0.00^d | Forelimb placing test score ([2]; 2 mg/kg group, day −1 (baseline)): 0.60 ± 0.70 | Forelimb placing test score ([2]; 2 mg/kg s.c. once a day, day 3 after operation): 6.20 ± 0.92^ab | Forelimb placing test score ([2]; 2 mg/kg s.c. once a day, day 7 after operation): 5.70 ± 0.67^ab | Forelimb placing test score ([2]; 2 mg/kg s.c. once a day, day 14 after operation): 4.70 ± 0.67^ab | Forelimb placing test score ([2]; 2 mg/kg s.c. once a day, day 21 after operation): 4.10 ± 0.88^ab | Forelimb placing test score ([2]; 2 mg/kg s.c. once a day, day 28 after operation): 2.60 ± 0.84^ab | forelimb placing test scores, change as compared with neuron apoptosis control ([2]; 2 mg/kg, 3 days after surgery): −25.30% | forelimb placing test scores, change as compared with neuron apoptosis control ([2]; 2 mg/kg, 7 days after surgery): −34.48% | forelimb placing test scores, change as compared with neuron apoptosis control ([2]; 2 mg/kg, 14 days after surgery): −39.74% | forelimb placing test scores, change as compared with neuron apoptosis control ([2]; 2 mg/kg, 21 days after surgery): −43.06% | forelimb placing test scores, change as compared with neuron apoptosis control ([2]; 2 mg/kg, 28 days after surgery): −58.06%
